Source: ChEMBL document CHEMBL1201862, “PubChem BioAssay data set” (2004)
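Grown in 96-well plates, cells were treated for 48 hours with each compound at five concentrations. Insufficient inhibition: endpoint recorded as highest concentration tested. GI50 marks 50% less growth.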 Active and inactive are the calls of the source. Cut-off read from the data, not from the text of the source: active = GI50 up to about 1.1 µM and inactive = higher.

Columns and labels:
Assay in all cases: NCI anticancer screen, dose series, 48 h
A498 = tested on: A498
ACHN = tested on: ACHN
CAKI-1 = tested on: CAKI-1
HCT-116 = tested on: HCT-116
HT-29 = tested on: HT-29
Hs-578T = tested on: Hs-578T
K562 = tested on: K562
KM12 = tested on: KM12
MDA-MB-231 = tested on: MDA-MB-231
Malme-3M = tested on: Malme-3M
NCI-H460 = tested on: NCI-H460
OVCAR-4 = tested on: OVCAR-4
RPMI-8226 = tested on: RPMI-8226
SK-MEL-28 = tested on: SK-MEL-28
SK-MEL-5 = tested on: SK-MEL-5
SR = tested on: SR
U-251 = tested on: U-251
UO-31 = tested on: UO-31

| SMILES | GI50 (A498) | GI50 (ACHN) | GI50 (CAKI-1) | GI50 (HCT-116) | GI50 (HT-29) | GI50 (Hs-578T) | GI50 (K562) | GI50 (KM12) | GI50 (MDA-MB-231) | GI50 (Malme-3M) | GI50 (NCI-H460) | GI50 (OVCAR-4) | GI50 (RPMI-8226) | GI50 (SK-MEL-28) | GI50 (SK-MEL-5) | GI50 (SR) | GI50 (U-251) | GI50 (UO-31) |
| --- | --- | --- | --- | --- | --- | --- | --- | --- | --- | --- | --- | --- | --- | --- | --- | --- | --- | --- |
| COc1ccc(-c2cc(-c3ccc(Nc4ccnc5cc(Cl)ccc45)cc3)[nH]c(=O)c2C#N)c2ccccc12 | 23.3 µM (inactive) | 27.5 µM (inactive) | 9.46 µM (inactive) | 2.16 µM (inactive) | 2 µM (inactive) | 2.62 µM (inactive) | 2.37 µM (inactive) | 3.47 µM (inactive) | 3.29 µM (inactive) | 2.23 µM (inactive) | 11.1 µM (inactive) | 1.79 µM (inactive) | 2.6 µM (inactive) | 3.34 µM (inactive) | 13.1 µM (inactive) | 0.413 µM (active) | 1.87 µM (inactive) | 5.32 µM (inactive) |
| CC1=CC23C(COC(=O)C24CO4)C(C(=O)O)=CC3C1C (centres undefined) | 23.3 µM (inactive) | 27.4 µM (inactive) | 9.79 µM (inactive) | 16 µM (inactive) | 16.2 µM (inactive) | 2.78 µM (inactive) | 4.85 µM (inactive) | 6.73 µM (inactive) | 10.9 µM (inactive) | 6 µM (inactive) | 18.2 µM (inactive) | 15.2 µM (inactive) | 2.37 µM (inactive) | 2.3 µM (inactive) | 25.2 µM (inactive) | 17.1 µM (inactive) | 11.5 µM (inactive) | 27.3 µM (inactive) |
| Nc1nc(N)c2cc(-c3ccccc3)cnc2n1 | 14.9 µM (inactive) | 12.9 µM (inactive) | 16 µM (inactive) | 4.66 µM (inactive) | 8.55 µM (inactive) | 20.2 µM (inactive) | 3.36 µM (inactive) | 16.5 µM (inactive) | 7.89 µM (inactive) | 8.99 µM (inactive) | 10.8 µM (inactive) | 13.9 µM (inactive) | 16.6 µM (inactive) | 17.7 µM (inactive) | 10 µM (inactive) | 6.18 µM (inactive) | 15.1 µM (inactive) | 13 µM (inactive) |
| CS/C(C#N)=C(\C#N)SC | 23 µM (inactive) | 4.33 µM (inactive) | 6.04 µM (inactive) | 20.9 µM (inactive) | 16.1 µM (inactive) | 31.8 µM (inactive) | 4.11 µM (inactive) | 13.9 µM (inactive) | 24.7 µM (inactive) | 11.4 µM (inactive) | 21.4 µM (inactive) | 13.4 µM (inactive) | 1.88 µM (inactive) | 10.7 µM (inactive) | 18.2 µM (inactive) | 1.24 µM (inactive) | 4.45 µM (inactive) | 4.18 µM (inactive) |
| CC(C)NC(=O)OCc1c(COC(=O)NC(C)C)c(-c2ccc[n+](COC(=O)CC(C)(C)C)c2)n2c1CCC2 | > 100 µM (inactive) | 35.6 µM (inactive) | 38.5 µM (inactive) | > 100 µM (inactive) | > 100 µM (inactive) | 87.7 µM (inactive) | > 100 µM (inactive) | > 100 µM (inactive) | > 100 µM (inactive) | > 100 µM (inactive) | 51.5 µM (inactive) | > 100 µM (inactive) | > 100 µM (inactive) | > 100 µM (inactive) | > 100 µM (inactive) | 71.1 µM (inactive) | 94.8 µM (inactive) | 93.8 µM (inactive) |
| OC(Cc1cnnc2ccccc12)C(Cl)(Cl)Cl (centres undefined) | > 10 µM (inactive) | > 10 µM (inactive) | > 10 µM (inactive) | > 10 µM (inactive) | > 10 µM (inactive) | > 10 µM (inactive) | > 10 µM (inactive) | > 10 µM (inactive) | > 10 µM (inactive) | > 10 µM (inactive) | > 10 µM (inactive) | > 10 µM (inactive) | > 10 µM (inactive) | > 10 µM (inactive) | > 10 µM (inactive) | > 10 µM (inactive) | > 10 µM (inactive) | > 10 µM (inactive) |
| CC(C)CCC1(CCN)C(=O)NC(=O)NC1=O | > 100 µM (inactive) | > 100 µM (inactive) | > 100 µM (inactive) | > 100 µM (inactive) | > 100 µM (inactive) | > 100 µM (inactive) | 16.3 µM (inactive) | > 100 µM (inactive) | > 100 µM (inactive) | > 100 µM (inactive) | > 100 µM (inactive) | > 100 µM (inactive) | > 100 µM (inactive) | > 100 µM (inactive) | > 100 µM (inactive) | 6.68 µM (inactive) | > 100 µM (inactive) | > 100 µM (inactive) |
| CCOC(=O)C1C(c2ccc(O)c(OC)c2)c2c(n[nH]c2O)CC1(C)O (centres undefined) | > 100 µM (inactive) | > 100 µM (inactive) | > 100 µM (inactive) | > 100 µM (inactive) | > 100 µM (inactive) | > 100 µM (inactive) |  | > 100 µM (inactive) | > 100 µM (inactive) | > 100 µM (inactive) | > 10 µM (inactive) | > 100 µM (inactive) | > 100 µM (inactive) | > 100 µM (inactive) | > 100 µM (inactive) | > 100 µM (inactive) | > 100 µM (inactive) | > 100 µM (inactive) |
| CC(=O)O[C@H]1C(=O)[C@@]2(C)[C@H]([C@H](OC(=O)C3CCCCC3)[C@]3(O)C[C@H](OC(=O)[C@H](O)[C@@H](NC(=O)C4CCCCC4)C4CCCCC4)C(C)=C1C3(C)C)[C@]1(OC(C)=O)CO[C@@H]1C[C@@H]2O | 0.0902 µM (active) | 0.168 µM (active) | 0.105 µM (active) | 0.00439 µM (active) |  | 0.00962 µM (active) | 0.0128 µM (active) | 0.0101 µM (active) | 0.0336 µM (active) | 0.0323 µM (active) | 0.00723 µM (active) | 0.538 µM (active) | 0.0025 µM (active) | 0.479 µM (active) | 0.0147 µM (active) | 0.0082 µM (active) | 0.0117 µM (active) | 0.344 µM (active) |
| CCOP(=O)(OCC)/C(C#N)=C/c1ccnc2ccccc12 | 78.3 µM (inactive) | 43.6 µM (inactive) | 24 µM (inactive) | 3.27 µM (inactive) | 19.7 µM (inactive) | 23.7 µM (inactive) |  | 27.2 µM (inactive) | 24.9 µM (inactive) | 14 µM (inactive) | 43.6 µM (inactive) | 32.6 µM (inactive) | 44.7 µM (inactive) | 34.6 µM (inactive) | 23.3 µM (inactive) | 21.9 µM (inactive) | 51.8 µM (inactive) | < 0.01 µM (active) |
| Cc1ccc(S(=O)(=O)N/N=C/C(Br)=C(/Br)C(=O)O)cc1 | 16.4 µM (inactive) | 2.71 µM (inactive) | 5.64 µM (inactive) | 1.91 µM (inactive) | 5.16 µM (inactive) | 10.7 µM (inactive) |  | 10.6 µM (inactive) | 14.8 µM (inactive) | 4.39 µM (inactive) | 17.5 µM (inactive) | 6.22 µM (inactive) | 1.66 µM (inactive) | 2.94 µM (inactive) | 11.7 µM (inactive) | 0.321 µM (active) | 4.22 µM (inactive) | 4.66 µM (inactive) |
